From US20080039485A1, “LOW-DOSE-LONG-TERM PHARMACEUTICAL COMPOSITION COMPRISING CAMPTOTHECIN DERIVATIVES FOR THE TREATMENT OF CANCERS” (TARGETGEN BIOTECHNOLOGY CO., LTD., priority 2006, published 2008)

What was measured:
[1] = Toxicity in xenograft-bearing nude mice (body weight, pathology); type: in vivo
Procedure: (§1) 10-HCPT was dissolved in propylene glycol and treatment began when the tumor size reached 3-5 mm. 10-HCPT was administered via p.o. once per two or four days at doses of 1-7.5 mg/kg (volume of injection: 0.1 mL/20 g of body weight), respectively. The control group received propylene glycol vehicle once per two days. Tumor size and body weight were monitored twice a week throughout the experiment. The tumor size was measured using a vernier caliper. Tumor volume (V) was calculated according to the formula: V (mm^3)=0.4AB^2, where A and B are the longest diameter and the shortest diameter, respectively. At the end of experiment, all mice were sacrificed by CO2 gas. Tumors, livers, kidneys, and lungs were collected, fixed, embedded and stained with hematoxylin and eosin for pathological analysis.

human Hep G2 cells = settings: cited from earlier work
[2] = system: cell cycle regulatory proteins in Colo-205 cells; assay: Western blotting of cell cycle regulatory proteins; type: cell-based, human; settings: Colo-205, 3 μM, 48 hr
Excerpt: The progression of the cell cycle is promoted by various CDKs binding with their respective cyclin partners and inhibited by CDK inhibitors such as p21 and p27. In general, CDK2 in association with cyclin E regulates the G1/S transition, and CDK1 in concert with type-A and -B cyclins controls the G2/M transition. Both cell cycle inhibitory proteins p21 and p27 block cell cycle progression at the G1/S as well as the G2/M transitions of cell cycle. […] To confirm this speculation, we analyzed the expressions of several cell cycle regulatory proteins by means of Western blotting assay as described below.
Colo-205 cells were cultured in Dulbecco's modified Eagle Medium (DMEM) supplemented with 10% fetal bovine serum (FBS) at 37° C. in a 5% CO2 atmosphere. Cells were seeded in 6-well plate and incubated with 3 μM of 10-HCPT. After 48 hr, the treated cells were washed twice with phosphate-buffered saline (PBS), flash frozen in liquid nitrogen, and stored at −80° C. The harvested cells were lysed in ice-cold report lysis buffer (Promega). After cleaning the resulted lysates by centrifugation, protein in the clear lysate was quantified by Dc protein assay kit (Bio-Rad). 15 μg of lysate protein were resolved by 10% SDS-PAGE, transferred onto a polyvinylidene difluoride membrane (PVDF membrane, Amersham Biosciences), and immunoblotted with antibodies against followed cellular proteins: DNA topoisomerase I, p53, p27, phosphorylated p27 (Santa Cruz Biotechnology), cyclin E, CDK2 (BD Pharningen), PCNA, p21 (Upstate), and α-tubulin (Sigma). Protein content was visualized with BM Chemiluminescence Blotting Kit (Roche Molecular Biochemicals). The blots were exposed to X-ray film (Fuji) for various times.

Colo-205 xenografts = assay: In vivo antiproliferation, Colo-205 xenografts in BALB/c-nu mice; settings: for tumor volume at day 24: control 300.5±22.3
Procedure: We further examined whether 10-HCPT is effective in growth suppression in vivo after tumor formation. Colo-205 cells were transplanted into BALB/c-nu mice, and when the tumors were palpable (3-5 mm), the mice were treated either with vehicle control or 10-HCPT.
The in vivo experiment was carried out with ethical committee approval and met the standards required by the Guiding Principles in the Use of Animals in Toxicology, which were adopted by the Society of Toxicology in 1989. The BALB/c-nu mice were obtained from National Laboratory Animal Center of National Applied Research Laboratories (Taipei, Taiwan) and housed in a laminar flow room under sterilized conditions with the temperature being maintained at 25±2° C. and the light controlled at 12 h light and 12 h dark cycle. The Colo 205 cells were harvested and resuspended in serum free RPMI-1640 medium. Cells were adjusted to 1×10^7 cells/mL, and transplanted subcutaneously on the flank regions of the mice. Each experimental group included six to seven mice bearing tumors.
as §1

histone H1 and H3 = settings: murine hepatoma cells; cited from earlier work
Colo-205 cells [3] = assay: DNA fragmentation assay; type: cell-based, human; settings: various concentrations, 48 hrs, 1.5% agarose gel
Excerpt: Because apoptosis always takes place as a consequence of a cell cycle block, it is possible that 10-HCPT is able to cause cell death through apoptosis pathway. To verify this possibility, we first performed DNA fragmentation assay since DNA fragmentation is one characteristic of apoptosis.
The DNA of Colo-205 cells treated with various concentrations of 10-HCPT for 48 hrs was extracted and analyzed by 1.5% native agarose gel electrophoresis.

Colo-205 cells [4] = assay: Cell cycle distribution by propidium iodide staining and flow cytometry; type: cell-based, human; settings: various concentrations, 48 hrs
Procedure: We further investigated if the suppression of cell growth induced by 10-HCPT on Colo-205 was due to either cell cycle arrest or cell death. The Colo-205 cells were treated with various concentrations of 10-HCPT for 48 hrs and analyzed by propidium iodide staining and flow cytometry as described below.
After treatment with 10-HCPT, cells were trypsinized and resuspended in 70% ethanol. The cells were incubated on ice for at least 1 hr and resuspended in 1 mL of cell cycle assay buffer (0.38 mM sodium citrate, 0.5 mg/mL RNase A, and 0.01 mg/mL propidium iodide) at a concentration of 5×10^5 cells/mL. Samples were stored in the dark at 4° C. until cell cycle analysis, which was carried out by use of a flow cytometer and ModFit LT 2.0 software (Verity Software, Topsham, Me.).
A FACScan flow cytometer (Becton Dickinson, Bedford, Mass.) equipped with a 488-nm argon laser was used for analysis of cellular function by flow cytometry. Forward and side scatters were used to establish size gates and exclude cellular debris from the analysis. The excitation wavelength was set at 488 nm. The observation wavelength of 530 nm was chosen for green fluorescence and 585 nm for red fluorescence and the intensities of emitted fluorescence were collected on FL1 and FL2 channels, respectively. In each measurement, a minimum of 20,000 cells was analyzed. Data were acquired and analyzed using the Cell Quest software (Becton Dickinson). Relative change in the mean fluorescence intensity was calculated as the ratio between mean fluorescence intensity in the channel of the treated cells and that of the control.

[5] = system: caspases (IETD-pNA and LEHD-pNA substrates); assay: IETD-pNA and LEHD-pNA cleavage in cell lysates; type: cell-based, human; settings: Colo-205 cells
[6] = cited from earlier work
[7] = system: human colon cancer HT-29 cells; assay: MTT assay of cell growth, HT-29; type: cell-based; settings: HT-29, days 1-3, MTT
Procedure: (§2) Two human colon cancer cell lines, Colo-205 (ATCC accession No. CCL-222) and HT-29 (ATCC accession No. HTB-38), were used in this study. Cells were treated with 0.2, 0.76, 1.52, 7.62, 15.24, 22.87, 30.49, 38.11, 45.73 or 53.35 μM 10-HCPT or CPT-11 for 1-3 days, and the relative number of the viable cells was determined by MTT assay as described below.
(§3) Cells were seeded in a 24-well cell culture cluster (Costar, Cambridge, Mass.) at a density of 1×10^6 cells per mL and cultured overnight prior to drug treatment. After 10-HCPT or CPT-11 treatment for 3 days, the medium was discarded and replaced with an equal volume (0.5 mL) of fresh medium containing 0.456 mg/mL 3-[4,5-dimethylthiazol-2-yl]-2,5-diphenyl-tetrazolium bromide (MTT; Sigma Chemical Company) and incubated for 2 hours at 37° C. in the dark. The medium was discarded, and cells were then combined with […] dimethyl sulfoxide (Sigma Chemical Company) to dissolve the formazan produced. Cell viability was determined according to the calorimetric comparison by reading optical density (OD) values from a microplate reader (Spectra Max 250; Spectra Diode Laboratories, CA) at an absorption wavelength of 570 nm.

caspase-3 = assay: DEVD-pNA cleavage activity (Caspase-3 Colorimetric Assay Kit); type: cell-based, human; settings: Colo-205 lysates, 48 hrs treatment, vs drug-free control
Procedure: In addition, to further determine whether caspases participate in the propagation of apoptosis induced by 10-HCPT in Colo-205 cells, cell lysates from drug-treated cells were analyzed for the cleavage of the p-nitroaniline-tagged peptides N-Acetyl-Asp-Glu-Val-Aps-pNA (DEVD-pNA), which represent preferential substrates for caspase-3. Caspase activation leads to the release of pNA that can be monitored by absorbance measurements at 405 nm using a plate reader. Specifically, DEVD-pNA cleavage activity was measured using Caspase-3 Colorimetric Assay Kit (BioVision) according to the recommended protocols. 3×10^6 of 10-HCPT treated cells were harvested, resuspended in 50 μl of chilled cell lysis buffer and incubated on ice for 10 min before centrifugation (12,000 rpm for 3 min at 4° C.). The supernatant was collected and the total protein concentration of the supernatant was determined by Dc protein assay kit (Bio-Rad). Each assay reaction containing 100 μg of cell lysates, 50 μl of 2× reaction buffer supplemented with 10 mM DTT, and 5 μl of the 4 mM of DEVD-pNA (200 μM final concentration) was carried out at 37° C. for 1 hr. The formation of p-nitroanilide was detected at 405 nm in a microtiter plate reader.

[8] = system: human colon cancer Colo-205 cells; assay: MTT assay of cell growth, Colo-205; type: cell-based; settings: for concentration at which significant growth inhibition was observed: Colo-205, day 2 and day 3, MTT, vs vehicle controls; for concentration at which complete growth inhibition was observed: Colo-205, days 1-3, MTT
Procedure: as §2, §3

Colo-205 cells [9] = assay: Viable cell number by trypan blue exclusion assay; type: cell-based, human; settings: 5, 10, 15 or 20 nM, 24 to 120 hr, vs untreated cells
Procedure: To investigate the effect of 10-HCPT on the growth of Colo-205 cell line, the cells were treated with a series of dosages of 10-HCPT and harvested at different time points. The cell numbers were determined by trypan blue exclusion assay as described below.
Colo-205 cells (5×10^5) were seeded in 25T flasks overnight and then treated without (control) and with 5, 10, 15, or 20 nM of 10-HCPT, respectively. After treatment for 24 to 120 hr, cells were harvested by trypsin-EDTA and then centrifuged at 1500 rpm for 5 min at 4° C. The cell pellet was resuspended in culture medium containing 0.04% trypan blue and the viable cells were enumerated by a hemocytometer.

[10] = well known in the art; cited from earlier work
[11] = previous pharmacokinetic studies

Q: With `CC[C@@]1(O)C(=O)OCc2c1cc1n(c2=O)Cc2cc3cc(O)ccc3nc2-1` [10-HCPT, 10-hydroxy-camptothecin] as the compound, how does the average body weight ([1]; 7.5 mg/kg/2 days-treated group, end of study) read?
A: slightly recovered

Q: What about the acute toxicity ([1]; 1-7.5 mg/kg, p.o., once per two or four days, nude mice) of the same compound?
A: no obvious acute toxicity

Q: And the body weight ([1]; all treated groups except the 7.5 mg/kg/2 days-treated group)?
A: No significant reduction in body weight

Q: And the “tissue damage in liver, lung and kidney” value ([1]; tissue slices stained with hematoxylin and eosin)?
A: no tissue damage was observed

Q: What about the effect on differentiation (human Hep G2 cells) of the same compound?
A: differentiation inducing effect

Q: What about the CDK2 expression [2] of the same compound?
A: increasing expression

Q: And the PCNA protein level [2]?
A: no effect

Q: And the “amount of p27” value [2]?
A: decreasing amount

Q: What about the cdc25c expression [2] of the same compound?
A: enhanced

Q: And the “cyclin B1 expression” value [2]?
A: enhanced

Q: What about the “cyclin E expression” value [2] of the same compound?
A: increasing expression

Q: What about the p21 protein level [2] of the same compound?
A: dramatically increased

Q: And the “tumor volume at day 24” value (Colo-205 xenografts; 2.5 mg/kg/2 days p.o., P<0.01)?
A: 85.9±12.3 mm^3

Q: What about the “tumor volume at day 24” value (Colo-205 xenografts; 2.5 mg/kg/4 days p.o.) of the same compound?
A: 273.1±33.7 mm^3

Q: What about the “tumor volume at day 24” value (Colo-205 xenografts; 5 mg/kg/2 days p.o., P<0.01) of the same compound?
A: 60.8±15.4 mm^3

Q: What about the “tumor volume at day 24” value (Colo-205 xenografts; 5 mg/kg/4 days p.o., p<0.05) of the same compound?
A: 228.9±45.3 mm^3

Q: And the “tumor volume at day 24” value (Colo-205 xenografts; 7.5 mg/kg/2 days p.o., P<0.01)?
A: 7.2±2.8 mm^3

Q: What about the “tumor volume at day 24” value (Colo-205 xenografts; 7.5 mg/kg/4 days p.o., p<0.05) of the same compound?
A: 182.9±43.9 mm^3

Q: And the tumor growth suppression (Colo-205 xenografts; oral, 2.5-7.5 mg/kg/2 days, nude mouse xenografts)?
A: obviously observed

Q: What about the “effect on phosphorylation of histone H1 and H3” value (histone H1 and H3) of the same compound?
A: inhibitory effect

Q: What about the DNA ladders (Colo-205 cells [3]) of the same compound?
A: DNA ladders were detected

Q: What about the “cell populations in G0/G1 phase” value (Colo-205 cells [4]) of the same compound?
A: decreasing

Q: What about the “cell populations in G2/M phase” value (Colo-205 cells [4]) of the same compound?
A: induced dramatically the increasing

Q: And the “population in sub G0/G1 phase” value (Colo-205 cells [4])?
A: increasing population

Q: And the “S phase of cell cycle” value (Colo-205 cells [4]; vs untreated)?
A: no significant differences

Q: And the “caspase activation with IETD-pNA substrate” value [5]?
A: only stimulated little caspase activations

Q: What about the “caspase activation with LEHD-pNA substrate” value [5] of the same compound?
A: only stimulated little caspase activations

Q: And the “toxicity with i.v. administration” value ([6]; i.v.)?
A: Dose-dependent toxicity was observed

Q: What about the distribution half-life [6, 11] of the same compound?
A: short

Q: What about the elimination half-life [6, 11] of the same compound?
A: prolonged

Q: What about the “concentration at which complete growth inhibition was observed” value [7] of the same compound?
A: 0.5 µM

Q: And the “absorbance with the DEVD-pNA substrate” value (caspase-3)?
A: clearly elevated

Q: And the “concentration at which significant growth inhibition was observed” value [8]?
A: 0.2 µM

Q: What about the “concentration at which complete growth inhibition was observed” value [8] of the same compound?
A: 1 µM

Q: What about the “effect on cell number increase” value (Colo-205 cells [9]) of the same compound?
A: suppression of cell number increasing in dose-dependent manner

Q: Which water-solubility [10] does the source give for `CC[C@@]1(O)C(=O)OCc2c1cc1n(c2=O)Cc2cc3ccccc3nc2-1` [CPT, Camptothecin] here?
A: water-insoluble

Q: Which water-solubility [10] does the source give for `CC[C@@]1(O)C(=O)OCc2c1cc1n(c2=O)Cc2cc3c(CN(C)C)c(O)ccc3nc2-1` [topotecan] here?
A: better water-solubility than CPT

Q: Which water-solubility [10] does the source give for irinotecan [CPT-11] here?
A: better water-solubility than CPT

Q: What about the “concentration at which complete growth inhibition was observed” value [7] of the same compound?
A: 45.73 µM

Q: What about the “concentration at which significant growth inhibition was observed” value [8] of the same compound?
A: 22.87 µM

Q: What about the “concentration at which complete growth inhibition was observed” value [8] of the same compound?
A: 38.11 µM
